{
  "source": "patent US20100285959A1",
  "about": "“HERBICIDAL MIXTURES” (priority 2006, published 2010)",
  "key": {"velvetleaf (ABUTH)": {"test_system": "velvetleaf (ABUTH)", "assay": "Test 26 field trial, postemergence", "type": "in vivo, Abutilon theophrasti", "set-up": "scale not given here", "excerpt": "(§1) Corn seeds (hybrid ‘Pioneer 31G96’) were planted in mid spring season, 3.8 cm deep in a silt loam soil having 2% organic matter and a pH of 6.6. Plots were 6.1 m long by 3.0 m wide with rows spaced 76 cm apart. Seeds were spaced 15 cm apart within the rows. The field was managed using conventional tillage practices. […] All treatments also included a surfactant. […] Some of the weed species could not be evaluated at every timing. […] Results are the means of the three replicates."}, "winter wheat (TRZAW)": {"test_system": "winter wheat (TRZAW)", "assay": "Test 27 field trial, postemergence", "type": "in vivo, Triticum aestivum", "conditions": "cv. Custer, Triticum aestivum (winter wheat), in vivo", "excerpt": "(§2) Wheat seeds (cv. ‘Custer’) were planted in late fall season in a clay loam soil. Plots were 9 m long by 1.8 m wide. The field was managed using conventional tillage practices. […] All treatments also included a surfactant. […] Results are the means of the three replicates."}, "common ragweed (AMBEL)": {"test_system": "common ragweed (AMBEL)", "assay": "Test 26 field trial, postemergence", "type": "in vivo, Ambrosia artemisiifolia", "set-up": "scale not given here", "excerpt": "as §1"}, "[1]": {"test_system": "ivyleaf morningglory (IPOHE)", "assay": "Test 26 field trial, postemergence", "type": "in vivo, Ipomoea hederacea", "set-up": "scale not given here", "excerpt": "as §1"}, "jimsonweed (DATST)": {"test_system": "jimsonweed (DATST)", "assay": "Test 26 field trial, postemergence", "type": "in vivo, Datura stramonium", "conditions": "28 DAA", "excerpt": "as §1"}, "[2]": {"test_system": "Pennsylvania smartweed (POLPY)", "assay": "Test 26 field trial, postemergence", "type": "in vivo, Polygonum pensylvanicum", "excerpt": "as §1"}, "giant ragweed (AMBTR)": {"test_system": "giant ragweed (AMBTR)", "assay": "Test 26 field trial, postemergence", "type": "in vivo, Ambrosia trifida", "excerpt": "as §1"}, "kochia (KCHSC)": {"test_system": "kochia (KCHSC)", "assay": "Test 27 field trial, postemergence", "type": "in vivo, Kochia scoparia", "set-up": "scale not given here", "conditions": "thifensulfuron-methyl 10 g a.i./ha", "excerpt": "as §2"}, "corn (ZEAMD)": {"test_system": "corn (ZEAMD)", "assay": "Test 26 field trial, postemergence", "type": "in vivo, Zea mays ssp. indentata", "conditions": "hybrid Pioneer 31G96, Zea mays ssp. indentata (corn), in vivo", "excerpt": "as §1"}, "giant foxtail (SETFA)": {"test_system": "giant foxtail (SETFA)", "assay": "Test 26 field trial, postemergence", "type": "in vivo, Setaria faberi", "set-up": "scale not given here", "excerpt": "as §1"}, "[3]": {"test_system": "common lambsquarters (CHEAL)", "assay": "Test 26 field trial, postemergence", "type": "in vivo, Chenopodium album", "set-up": "scale not given here", "excerpt": "as §1"}},
  "data": [
    {"smiles": "COC(=O)c1sccc1S(=O)(=O)NC(=O)Nc1nc(C)nc(OC)n1", "note": "[Thifensulfuron-methyl]", "values": [
      {"measurement": "ABUTH Obs", "setting": "velvetleaf (ABUTH); 14 DAA, 2 g a.i./ha", "value": 53},
      {"measurement": "ABUTH Obs", "setting": "velvetleaf (ABUTH); 14 DAA, 4 g a.i./ha", "value": 60},
      {"measurement": "ABUTH Obs", "setting": "velvetleaf (ABUTH); 14 DAA, 8 g a.i./ha", "value": 55},
      {"measurement": "ABUTH Obs", "setting": "velvetleaf (ABUTH); 28 DAA, 2 g a.i./ha", "value": 75},
      {"measurement": "ABUTH Obs", "setting": "velvetleaf (ABUTH); 28 DAA, 4 g a.i./ha", "value": 79},
      {"measurement": "ABUTH Obs", "setting": "velvetleaf (ABUTH); 28 DAA, 8 g a.i./ha", "value": 87},
      {"measurement": "ABUTH Obs", "setting": "velvetleaf (ABUTH); 56 DAA, 2 g a.i./ha", "value": 33},
      {"measurement": "ABUTH Obs", "setting": "velvetleaf (ABUTH); 56 DAA, 4 g a.i./ha", "value": 30},
      {"measurement": "ABUTH Obs", "setting": "velvetleaf (ABUTH); 56 DAA, 8 g a.i./ha", "value": 73},
      {"measurement": "TRZAW Obs", "setting": "winter wheat (TRZAW); 16 days after application", "value": 0},
      {"measurement": "TRZAW Obs", "setting": "winter wheat (TRZAW); 28 days after application", "value": 0},
      {"measurement": "TRZAW Obs", "setting": "winter wheat (TRZAW); 49 days after application", "value": 0},
      {"measurement": "AMBEL Obs", "setting": "common ragweed (AMBEL); 14 DAA, 2 g a.i./ha", "value": 55},
      {"measurement": "AMBEL Obs", "setting": "common ragweed (AMBEL); 14 DAA, 4 g a.i./ha", "value": 72},
      {"measurement": "AMBEL Obs", "setting": "common ragweed (AMBEL); 14 DAA, 8 g a.i./ha", "value": 76},
      {"measurement": "AMBEL Obs", "setting": "common ragweed (AMBEL); 28 DAA, 2 g a.i./ha", "value": 23},
      {"measurement": "AMBEL Obs", "setting": "common ragweed (AMBEL); 28 DAA, 4 g a.i./ha", "value": 53},
      {"measurement": "AMBEL Obs", "setting": "common ragweed (AMBEL); 28 DAA, 8 g a.i./ha", "value": 43},
      {"measurement": "AMBEL Obs", "setting": "common ragweed (AMBEL); 56 DAA, 2 g a.i./ha", "value": 0},
      {"measurement": "AMBEL Obs", "setting": "common ragweed (AMBEL); 56 DAA, 4 g a.i./ha", "value": 17},
      {"measurement": "AMBEL Obs", "setting": "common ragweed (AMBEL); 56 DAA, 8 g a.i./ha", "value": 25},
      {"measurement": "IPOHE Obs", "setting": "[1]; 14 DAA, 2 g a.i./ha", "value": 57},
      {"measurement": "IPOHE Obs", "setting": "[1]; 14 DAA, 4 g a.i./ha", "value": 72},
      {"measurement": "IPOHE Obs", "setting": "[1]; 14 DAA, 8 g a.i./ha", "value": 73},
      {"measurement": "IPOHE Obs", "setting": "[1]; 28 DAA, 2 g a.i./ha", "value": 17},
      {"measurement": "IPOHE Obs", "setting": "[1]; 28 DAA, 4 g a.i./ha", "value": 20},
      {"measurement": "IPOHE Obs", "setting": "[1]; 28 DAA, 8 g a.i./ha", "value": 45},
      {"measurement": "IPOHE Obs", "setting": "[1]; 56 DAA, 2 g a.i./ha", "value": 0},
      {"measurement": "IPOHE Obs", "setting": "[1]; 56 DAA, 4 g a.i./ha", "value": 0},
      {"measurement": "IPOHE Obs", "setting": "[1]; 56 DAA, 8 g a.i./ha", "value": 20},
      {"measurement": "DATST Obs", "setting": "jimsonweed (DATST); 2 g a.i./ha", "value": 40},
      {"measurement": "DATST Obs", "setting": "jimsonweed (DATST); 4 g a.i./ha", "value": 87},
      {"measurement": "DATST Obs", "setting": "jimsonweed (DATST); 8 g a.i./ha", "value": 83},
      {"measurement": "POLPY Obs", "setting": "[2]; 14 DAA, 8 g a.i./ha", "value": 0},
      {"measurement": "POLPY Obs", "setting": "[2]; 28 DAA, 2 g a.i./ha", "value": 73},
      {"measurement": "POLPY Obs", "setting": "[2]; 28 DAA, 4 g a.i./ha", "value": 100},
      {"measurement": "POLPY Obs", "setting": "[2]; 28 DAA, 8 g a.i./ha", "value": 100},
      {"measurement": "AMBTR Obs", "setting": "giant ragweed (AMBTR); 14 DAA, 2 g a.i./ha", "value": 75},
      {"measurement": "AMBTR Obs", "setting": "giant ragweed (AMBTR); 28 DAA, 2 g a.i./ha", "value": 5},
      {"measurement": "AMBTR Obs", "setting": "giant ragweed (AMBTR); 28 DAA, 4 g a.i./ha", "value": 5},
      {"measurement": "KCHSC Obs", "setting": "kochia (KCHSC); 16 DAA", "value": 0},
      {"measurement": "KCHSC Obs", "setting": "kochia (KCHSC); 28 DAA", "value": 0},
      {"measurement": "KCHSC Obs", "setting": "kochia (KCHSC); 49 DAA", "value": 0},
      {"measurement": "ZEAMD Obs", "setting": "corn (ZEAMD); 14 days after application", "value": 0},
      {"measurement": "ZEAMD Obs", "setting": "corn (ZEAMD); 56 days after application", "value": 0},
      {"measurement": "SETFA Obs", "setting": "giant foxtail (SETFA); 28 DAA, 2 g a.i./ha", "value": 87},
      {"measurement": "SETFA Obs", "setting": "giant foxtail (SETFA); 28 DAA, 4 g a.i./ha", "value": 88},
      {"measurement": "SETFA Obs", "setting": "giant foxtail (SETFA); 28 DAA, 8 g a.i./ha", "value": 82},
      {"measurement": "SETFA Obs", "setting": "giant foxtail (SETFA); 56 DAA, 2 g a.i./ha", "value": 0},
      {"measurement": "SETFA Obs", "setting": "giant foxtail (SETFA); 56 DAA, 4 g a.i./ha", "value": 23},
      {"measurement": "SETFA Obs", "setting": "giant foxtail (SETFA); 56 DAA, 8 g a.i./ha", "value": 13},
      {"measurement": "CHEAL Obs", "setting": "[3]; 14 DAA, 2 g a.i./ha", "value": 65},
      {"measurement": "CHEAL Obs", "setting": "[3]; 14 DAA, 4 g a.i./ha", "value": 83},
      {"measurement": "CHEAL Obs", "setting": "[3]; 14 DAA, 8 g a.i./ha", "value": 80},
      {"measurement": "CHEAL Obs", "setting": "[3]; 28 DAA, 2 g a.i./ha", "value": 90},
      {"measurement": "CHEAL Obs", "setting": "[3]; 28 DAA, 4 g a.i./ha", "value": 93},
      {"measurement": "CHEAL Obs", "setting": "[3]; 28 DAA, 8 g a.i./ha", "value": 98},
      {"measurement": "CHEAL Obs", "setting": "[3]; 56 DAA, 2 g a.i./ha", "value": 27},
      {"measurement": "CHEAL Obs", "setting": "[3]; 56 DAA, 4 g a.i./ha", "value": 50},
      {"measurement": "CHEAL Obs", "setting": "[3]; 56 DAA, 8 g a.i./ha", "value": 93}
    ]}
  ]
}
